Assay results from the supplement of paper PMC10307832.

Columns and labels:
Test in all cases: relative viability (nuclei count vs DMSO), 5 days (fraction); higher = more cells survive
[1] = system: NCI-H23
Outline: (§1)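 Lung cancer cell lines were pin-tool dosed in 1536-well plates on the day after seeding, with either a lone drug or a fixed anchor-drug dose plus five library-drug doses (not always all listed) in √10 steps. Nuclei were counted on 4× images after 5 days. Relative viability is the ratio of treated-well to vehicle-well nuclei counts, with each value a median of duplicate plates.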

[2] = system: NCI-H2228
Outline: as §1

[3] = system: EMC-BAC-2
Outline: as §1

[4] = system: HCC-827
Outline: as §1

[5] = system: HCC-366
Outline: as §1

[6] = system: NCI-H2009
Outline: as §1

[7] = system: NCI-H460
Outline: as §1

[8] = system: SW 1573
Outline: as §1

[9] = system: CAL-12T
Outline: as §1

[10] = system: NCI-H1792
Outline: as §1

[11] = system: NCI-H1437
Outline: as §1

## Nc1ccn([C@@H]2O[C@H](CO)[C@@H](O)[C@@H]2O)c(=O)n1 [Cytarabine] + CS(=O)(=O)N1CCN(Cc2cc3nc(-c4cccc5[nH]ncc45)nc(N4CCOCC4)c3s2)CC1 [Pictilisib] (partner 1 µM)
[1]; first compound 0.005 µM
  relative viability: 0.527
[1]; first compound 0.01581 µM
  relative viability: 0.346
[1]; first compound 0.05 µM
  relative viability: 0.327
[1]; first compound 0.1581 µM
  relative viability: 0.156
[1]; first compound 0.5 µM
  relative viability: 0.138
[2]; first compound 0.005 µM
  relative viability: 0.29
[2]; first compound 0.01581 µM
  relative viability: 0.188
[2]; first compound 0.05 µM
  relative viability: 0.399
[2]; first compound 0.1581 µM
  relative viability: 0.109
[2]; first compound 0.5 µM
  relative viability: 0.146
[3]; first compound 0.005 µM
  relative viability: 0.42
[3]; first compound 0.01581 µM
  relative viability: 0.494
[3]; first compound 0.05 µM
  relative viability: 0.366
[3]; first compound 0.1581 µM
  relative viability: 0.246
[3]; first compound 0.5 µM
  relative viability: 0.165
[4]; first compound 0.005 µM
  relative viability: 1.05
[4]; first compound 0.01581 µM
  relative viability: 0.876
[4]; first compound 0.05 µM
  relative viability: 0.683
[4]; first compound 0.1581 µM
  relative viability: 0.474
[4]; first compound 0.5 µM
  relative viability: 0.408
[5]; first compound 0.005 µM
  relative viability: 0.134
[5]; first compound 0.01581 µM
  relative viability: 0.129
[5]; first compound 0.05 µM
  relative viability: 0.0867
[5]; first compound 0.1581 µM
  relative viability: 0.0754
[5]; first compound 0.5 µM
  relative viability: 0.0688
[6]; first compound 0.005 µM
  relative viability: 0.907
[6]; first compound 0.01581 µM
  relative viability: 0.678
[6]; first compound 0.05 µM
  relative viability: 0.81
[6]; first compound 0.1581 µM
  relative viability: 0.487
[6]; first compound 0.5 µM
  relative viability: 0.224
[7]; first compound 0.005 µM
  relative viability: 0.328
[7]; first compound 0.01581 µM
  relative viability: 0.322
[7]; first compound 0.05 µM
  relative viability: 0.226
[7]; first compound 0.1581 µM
  relative viability: 0.106
[7]; first compound 0.5 µM
  relative viability: 0.0854
[8]; first compound 0.005 µM
  relative viability: 0.362
[8]; first compound 0.01581 µM
  relative viability: 0.378
[8]; first compound 0.05 µM
  relative viability: 0.317
[8]; first compound 0.1581 µM
  relative viability: 0.134
[8]; first compound 0.5 µM
  relative viability: 0.106
[9]; first compound 0.005 µM
  relative viability: 0.403
[9]; first compound 0.01581 µM
  relative viability: 0.357
[9]; first compound 0.05 µM
  relative viability: 0.31
[9]; first compound 0.1581 µM
  relative viability: 0.326
[9]; first compound 0.5 µM
  relative viability: 0.222
[10]; first compound 0.005 µM
  relative viability: 0.314
[10]; first compound 0.01581 µM
  relative viability: 0.207
[10]; first compound 0.05 µM
  relative viability: 0.216
[10]; first compound 0.1581 µM
  relative viability: 0.174
[10]; first compound 0.5 µM
  relative viability: 0.188
[11]; first compound 0.005 µM
  relative viability: 0.381
[11]; first compound 0.01581 µM
  relative viability: 0.245
